Results on six molecules are retold here after ChEMBL document CHEMBL6096714, “Advancements in Neurotechnology: Pioneering Brain Monitoring and Stimulation for Enhanced Treatment and Understanding” (ACS Med Chem Lett, 2025).

Active and inactive are the calls of the source. The rule behind the calls is not given here.

In one assay the test system is Cortical neurone. The assay is described as follows: Neuroplasticity effect in female Wistar rat Cortical neuron assessed as increase in neurite number at 10 uM incubated for […]. It is filed as functional, cell-based.
As for `CN1CCc2[nH]c3cc(OCc4ccccc4)ccc3c2CC1`, the result was Active.
On the same count and under the same terms, the same measure for `CN1CCc2[nH]c3cc(Oc4ccccc4)ccc3c2CC1`: “Active”; for `Cn1c2c(c3ccc(OCc4ccccc4)cc31)CCNCC2`: “inactive”.
On the same count and under the same terms, to `CN1CCc2[nH]c3cc(OCc4ccc(F)cc4)ccc3c2CC1` belongs “Active”; to `Fc1ccc(Oc2ccc3c4c([nH]c3c2)CCNCC4)cc1`, “Active”; to `c1ccc(COc2ccc3c4c([nH]c3c2)CCNCC4)cc1`, “Active”.

The test system of another assay is Cortical neurone. Briefly: Neuroplasticity effect in female Wistar rat Cortical neuron assessed as increase in neurite length at 10 uM incubated for […]. Format: functional, cell-based.
On to `CN1CCc2[nH]c3cc(OCc4ccccc4)ccc3c2CC1`, for which the result was Active.
As to `CN1CCc2[nH]c3cc(Oc4ccccc4)ccc3c2CC1`, the outcome was Active.
Take `Cn1c2c(c3ccc(OCc4ccccc4)cc31)CCNCC2`: the result was inactive.
In the case of `CN1CCc2[nH]c3cc(OCc4ccc(F)cc4)ccc3c2CC1`, the result was Active.
With `Fc1ccc(Oc2ccc3c4c([nH]c3c2)CCNCC4)cc1`, the result was Active.
For `c1ccc(COc2ccc3c4c([nH]c3c2)CCNCC4)cc1`, the outcome was Active.

Another assay concerns Cortical neurone. Briefly: Neuroplasticity effect in female Wistar rat Cortical neuron assessed as increase in neurite branching at 10 uM incubated for […]. Format: functional, cell-based.
`CN1CCc2[nH]c3cc(OCc4ccccc4)ccc3c2CC1`: the outcome was inactive.
For the molecule `CN1CCc2[nH]c3cc(Oc4ccccc4)ccc3c2CC1`, the outcome was Active.
On to `Cn1c2c(c3ccc(OCc4ccccc4)cc31)CCNCC2`, for which the result was inactive.
The same measure, in the same setting: the same measure for `CN1CCc2[nH]c3cc(OCc4ccc(F)cc4)ccc3c2CC1`: “Active”; for `Fc1ccc(Oc2ccc3c4c([nH]c3c2)CCNCC4)cc1`: “Active”; for `c1ccc(COc2ccc3c4c([nH]c3c2)CCNCC4)cc1`: “Active”.
